Assay results reported in US20260284082A1, “TARGETING THE PANX1-P2Y2R-TRPV4 PATHWAY TO TREAT LUNG ISCHEMIA-REPERFUSION INJURY” (UNIVERSITY OF VIRGINIA PATENT FOUNDATION, priority 2023, published 2026).

Assays:
mouse model of lung IRI = test: Murine lung IR model (left-lung hilar ligation), pre-treatment with P2Y2R inhibitor; assay type: in vivo, mice; details: AR-C 5 mg/kg via jugular vein 1 hr prior to hilar ligation; 1 h ischemia + 2 h reperfusion
Experimental: Murine lung IR model. A left-lung hilar-ligation model of IRI in mice involving 1 hour of ligation (ischemia) followed by 2 hours of reperfusion.^9,20 Partial pressure of oxygen, lung compliance, lung edema, neutrophil infiltration, and cytokine levels in bronchoalveolar lavage fluid were assessed. Exposure of small pulmonary arteries and pulmonary microvascular endothelial cells to acute hypoxia-reoxygenation were used as ex vivo and in vitro surrogate models of IR, respectively.
Murine lung IR model: A well-established left lung IRI model involving temporary in vivo ligation of the left hilum (pulmonary artery, vein, and airway) was used.^6 Briefly, mice were anesthetized with inhaled isoflurane, intubated, ventilated with room air at 150 strokes/min with a tidal volume of […] (Harvard Apparatus Co, South Natick, MA), and heparinized (20 U/kg: Hospira Inc, Lake Forest, IL). […] Animals were again extubated, recovered in their cage, and monitored during the 2-hour reperfusion period. […]
Partial pressure of arterial oxygen (PaO2): After reperfusion, animals were anesthetized, intubated, and ventilated with 100% oxygen. […] Left lung-specific PaO2 was immediately measured using an i-STAT handheld blood analyzer and CG4+ cartridge (Abbott Point of Care, Princeton, NJ).
Lung wet-to-dry weight ratio: Lung wet-to-dry weight ratio was measured as an indicator of pulmonary edema. […]

lung IRI = details: wild-type mice pretreated, left hilar ligation model; 1 mg/kg intravenous dose; cited from earlier work
[1] = dog, in vivo; cited from earlier work
[2] = tested on: murine pulmonary microvascular endothelial cells; details: murine PMVECs, acute hypoxia-reoxygenation; cited from earlier work

For Cc1ccc2c(c1)C=Cc1cc(C)ccc1C2c1cn(Cc2ccc(C(=O)Nc3nn[nH]n3)o2)c(=O)[nH]c1=S [ARC, AR-C 118925XX], the “partial pressure of oxygen (PaO2) after IR (lung function)” value (mouse model of lung IRI) was “improved” and the “pulmonary edema (lung wet-to-dry weight ratio) after IR” value (mouse model of lung IRI) was “not in mice pre-treated with P2Y2R inhibitor AR-C”.

For O=C(NC1(c2ccccc2)CC1)c1c(CN2CCC(N3CCCCC3)CC2)c(-c2cccc(C(F)(F)F)c2)nc2cc(Br)ccc12 [GSK219, GSK2193874], the “lung IRI” value (lung IRI) is given as “significant attenuation”, the “plasma half-life (t1/2)” value [1] is given as 31 h and the “HR-induced secretion of CXCL1/KC” value [2] is given as “attenuated”.
